# Patent US9029364B2, “2,5-disubstituted thiomorpholine orexin receptor antagonists” (Merck Sharp & Dohme Corp., priority 2011, dated 2015)
# Molecular target: human orexin-2 receptor (Homo sapiens (Human), UniProt O43614)
# Assay: radioligand binding assay, orexin-2 receptor (hOX2 Bind hKi)
# Conditions: membranes from CHO cells expressing OX2 receptor
# Protocol: In a typical experiment the OX1 and OX2 receptor antagonistic activity of the compounds of the present invention was determined in accordance with the following experimental method. For intracellular calcium measurements, Chinese hamster ovary (CHO) cells expressing the rat orexin-1 receptor or the human orexin-2 receptor, are grown in Iscove's modified DMEM containing 2 mM L-glutamine, […], 1% hypoxanthine-thymidine supplement, 100 U/ml penicillin, 100 μg/ml streptomycin and 10% heat-inactivated fetal calf serum (FCS). The cells are seeded at 20,000 cells/well into Becton-Dickinson black 384-well clear bottom sterile plates coated with poly-D-lysine. All reagents were from GIBCO-Invitrogen Corp. The seeded plates are incubated overnight at 37° C. and 5% CO2. Ala-6,12 human orexin-A as the agonist is prepared as a 1 mM stock solution in 1% bovine serum albumin (BSA) and diluted in assay buffer (HBSS containing 20 mM HEPES, 0.1% BSA and 2.5 mM probenecid, pH7.4) for use in the assay at a final concentration of 70 pM. Test compounds are prepared as 10 mM stock solution in DMSO, then diluted in 384-well plates, first in DMSO, then assay buffer. On the day of the assay, cells are washed 3 times with 100 μl assay buffer and then incubated for 60 min (37° C., 5% CO2) in 60 μl assay buffer containing 1 μM Fluo-4AM ester, 0.02% pluronic acid, and 1% BSA. The dye loading solution is then aspirated and cells are washed 3 times with 100 μl assay buffer. 30 μl of that same buffer is left in each well. Within the Fluorescent Imaging Plate Reader (FLIPR, Molecular Devices), test compounds are added to the plate in a volume of 25 μl, incubated for 5 min and finally 25 μl of agonist is added. Fluorescence is measured for each well at 1 second intervals for 5 minutes and the height of each fluorescence peak is compared to the height of the fluorescence peak induced by 70 pM Ala-6,12 orexin-A with buffer in place of antagonist. For each antagonist, IC50 value (the concentration of compound needed to inhibit 50% of the agonist response) is determined. Alternatively, compound potency can be assessed by a radioligand binding assay (described in Bergman et. al. Bioorg. Med. Chem. Lett. 2008, 18, 1425-1430) in which the inhibition constant (Ki) is determined in membranes prepared from CHO cells expressing either the OX1 or OX2 receptor. The intrinsic orexin receptor antagonist activity of a compound which may be used in the present invention may be determined by these assays.
# The following tables show representative data for the compounds of the Examples as orexin receptor antagonists as determined by the foregoing assays wherein the hOX2 Ki is a measure of the ability of the test compound to inhibit the action of the human orexin-2 receptor and the hOX1R is a measure of the ability of the test compound to inhibit the action of the rat orexin-1 receptor.
# human orexin-2 receptor, sequence (O43614 whole entry): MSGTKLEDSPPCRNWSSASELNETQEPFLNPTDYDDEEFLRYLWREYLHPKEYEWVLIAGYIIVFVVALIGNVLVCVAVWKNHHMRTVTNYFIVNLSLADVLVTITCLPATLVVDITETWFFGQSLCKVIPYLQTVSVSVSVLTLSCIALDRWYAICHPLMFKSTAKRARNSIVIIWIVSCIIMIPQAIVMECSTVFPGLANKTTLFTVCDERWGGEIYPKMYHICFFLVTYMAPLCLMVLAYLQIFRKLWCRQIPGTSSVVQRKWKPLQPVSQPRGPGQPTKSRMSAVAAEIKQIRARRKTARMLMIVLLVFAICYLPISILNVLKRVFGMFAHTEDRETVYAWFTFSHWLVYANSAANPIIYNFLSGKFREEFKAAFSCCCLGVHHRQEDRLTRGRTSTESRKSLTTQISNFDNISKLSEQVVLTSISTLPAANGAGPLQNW
row,Compound,Ki
1,"Cc1ccc(-n2nccn2)c(C(=O)N2C[C@H](COc3ccc(F)cn3)SC[C@H]2C)c1 [Example 1, [(2R,5R)-2-{[(5-Fluoropyridin-2-yl)oxy]methyl}-5-methylthiomorpholin-4-yl][5-methyl-2-(2H-1,2,3-triazol-2-yl)phenyl]methanone]",0.38 nM
2,"C[C@@H]1CS[C@@H](COc2ccccn2)CN1C(=O)c1ccccc1-n1nccn1 [Example 2, (2R,5R)-5-methyl-2-[(pyridin-2-yloxy)methy1]-4-{[2-(2H-1,2,3-triazol-2-yl)phenyl]carbonyl} thiomorpholine]",15.3 nM
3,"C[C@@H]1CS[C@@H](COc2ccc(F)cn2)CN1C(=O)c1ccccc1-n1nccn1 [Example 3, (2R,5R)-2-{[(5-fluoropyridin-2-yl)oxy]methyl}-5-methy1-4-{[2-(2H-1,2,3-triazol-2-yl)phenyl]carbonyl} thiomorpholine]",0.9 nM
4,"Cc1ccc(OC[C@H]2CN(C(=O)c3ccccc3-n3nccn3)[C@H](C)CS2)nc1 [Example 4, (2R,5R)-5-methyl-2-{[(5-methylpyridin-2-yl)oxy]methyl}-4-{[2-(2H-1,2,3-triazol-2-yl)phenyl]carbonyl} thiomorpholine]",9.7 nM
5,"C[C@@H]1CS[C@@H](COc2ccc(Cl)cn2)CN1C(=O)c1ccccc1-n1nccn1 [Example 5, (2R,5R)-2-{[(5-chloropyridin-2-yl)oxy]methyl}-5-methyl-4-{[2-(2H-1,2,3-triazol-2-yl)phenyl]carbonyl} thiomorpholine]",1.7 nM
6,"C[C@@H]1CS[C@@H](COc2ccc(C#N)cn2)CN1C(=O)c1ccccc1-n1nccn1 [Example 6, 6-{[(2R,5R)-5-methy1-4-{[2-(2H-1,2,3-triazol-2-yl)phenyl]carbonyl}thiomorpholin-2-yl]methoxy}pyridine-3-carbonitrile]",47 nM
7,"C[C@@H]1CS[C@@H](COc2ccc(C(F)(F)F)cn2)CN1C(=O)c1ccccc1-n1nccn1 [Example 7, (2R,5R)-5-methyl-4-{[2-(2H-1,2,3-triazol-2-yl)phenyl]carbonyl}-2-({[5-(trifluoromethyl)pyridin-2-yl]oxy}methyl)thiomorpholine]",66 nM
8,"C[C@@H]1CS[C@@H](COc2ncccc2Cl)CN1C(=O)c1ccccc1-n1nccn1 [Example 8, (2R,5R)-2-{[(3-chloropyridin-2-yl)oxy]methyl}-5-methyl-4-{[2-(2H-1,2,3-triazol-2-yl)phenyl]carbonyl} thiomorpholine]",2.5 nM
9,"C[C@@H]1CS[C@@H](COc2ncccc2C#N)CN1C(=O)c1ccccc1-n1nccn1 [Example 9, 2-{[(2R,5R)-5-methy1-4-{[2-(2H-1,2,3-triazol-2-yl)phenyl]carbonyl}thiomorpholin-2-yl]methoxy}pyridine-3-carbonitrile]",150 nM
10,"Cc1ccnc(OC[C@H]2CN(C(=O)c3ccccc3-n3nccn3)[C@H](C)CS2)c1 [Example 10, (2R,5R)-5-methyl-2-{[(4-methylpyridin-2-yl)oxy]methyl}-4-{[2-(2H-1,2,3-triazol-2-yl)phenyl]carbonyl} thiomorpholine]",192 nM
11,"C[C@@H]1CS[C@@H](COc2ncccn2)CN1C(=O)c1ccccc1-n1nccn1 [Example 11, (2R,5R)-5-methyl-2-[(pyrimidin-2-yloxy)methy1]-4-{[2-(2H-1,2,3-triazol-2-yl)phenyl]carbonyl} thiomorpholine]",> 4650 nM
12,"Cc1nc(OC[C@H]2CN(C(=O)c3ccccc3-n3nccn3)[C@H](C)CS2)ncc1Cl [Example 12, (2R,5R)-2-{[(5-chloro-4-methylpyrimidin-2-yl)oxy]methyl}-5-methyl-4-{[2-(2H-1,2,3-triazol-2-yl)phenyl]carbonyl} thiomorpholine]",32 nM
13,"Cc1cnc(OC[C@H]2CN(C(=O)c3ccccc3-n3nccn3)[C@H](C)CS2)nc1Cl [Example 13, (2R,5R)-2-{[(4-chloro-5-methylpyrimidin-2-yl)oxy]methyl}-5-methyl-4-{[2-(2H-1,2,3-triazol-2-yl)phenyl]carbonyl} thiomorpholine]",7.4 nM
14,"COc1cnc(OC[C@H]2CN(C(=O)c3ccccc3-n3nccn3)[C@H](C)CS2)nc1Cl [Example 14, (2R,5R)-2-{[(4-chloro-5-methoxypyrimidin-2-yl)oxy]methyl}-5-methyl-4-{[2-(2H-1,2,3-triazol-2-yl)phenyl]carbonyl} thiomorpholine]",155 nM
15,"C[C@@H]1C[S+]([O-])[C@@H](COc2ccc(F)cn2)CN1C(=O)c1ccccc1-n1nccn1 (stereo partly drawn) [Example 15, [(2R,5R)-2-{[(5-Fluoropyridin-2-yl)oxy]methyl}-5-methyl-1-oxidothiomorpholin-4-yl][2-(2H-1,2,3-triazol-2-yl)phenyl]methanone]",170 nM
16,"C[C@@H]1CS[C@@H](CSc2ccccn2)CN1C(=O)c1ccccc1-n1nccn1 [Example 17, {(2R,5R)-5-Methyl-2-[(pyridine-2-ylsulfanyl)methyl]thiomorpholin-4-yl}[2-(2H-1,2,3-triazol-2-yl)phenyl]methanone]",98 nM
